One block for each compound: values may come before it.
Columns and labels:
[1] = molecular target: T1, FraB (Salmonella enterica, UniProt Q8ZLD0); experiment: G6PDH-coupled deglycase assay, Michaelis-Menten analysis; binding confirmed by native MS; assay type: biochemical
T1 construct: gene STM3601; 325-aa construct, N-terminal His6-tag

[2] = molecular target: T2, FrlB (Salmonella enterica, UniProt Q8ZJX7); experiment: native mass spectrometry (dimer with one or two ligands); about […] inhibition at […] in coupled assay; assay type: binding
T2 construct: gene STM4540; recombinant FrlB, His6 tag removed
T2 sequence (Q8ZJX7 1-343): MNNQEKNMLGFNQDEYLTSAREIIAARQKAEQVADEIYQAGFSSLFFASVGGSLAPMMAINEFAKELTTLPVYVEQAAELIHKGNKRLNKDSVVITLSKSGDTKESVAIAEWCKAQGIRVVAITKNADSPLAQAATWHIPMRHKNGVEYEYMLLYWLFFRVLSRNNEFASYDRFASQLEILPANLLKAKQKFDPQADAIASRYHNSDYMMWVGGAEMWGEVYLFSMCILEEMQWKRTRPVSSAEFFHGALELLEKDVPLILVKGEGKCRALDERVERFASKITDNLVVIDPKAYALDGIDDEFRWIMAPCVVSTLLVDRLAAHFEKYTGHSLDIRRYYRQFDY

[3] = molecular target: FraB, a Salmonella deglycase (Salmonella); experiment: native MS; 3 uM FraB or FrlB mixed with 150, 300 or 450 uM 2-deoxy-6-P-GA; 200 mM ammonium acetate (pH adjusted to 7.4 for FraB); mixed at 25 °C, incubated 30 min at room temperature; nano-ESI, Q Exactive UHMR Orbitrap
[4] = molecular target: FrlB deglycase (Salmonella) (Salmonella); experiment: as above

Compound: O=C(O)C[C@@H](O)[C@H](O)[C@H](O)COP(=O)(O)O [2-deoxy-6-P-GA, 2-deoxy-6-phosphogluconate]
Ki [1]: 3.3 µM
native mass spectrometry (dimer with one or two ligands); about 50% inhibition a [2]: These results confirm the direct interaction of 2-deoxy-6-P-GA to FraB and FrlB.

stoichiometry N [3]: 2
Compound: FraB, a Salmonella deglycase (enzyme)

stoichiometry N [4]: 2
Compound: FrlB deglycase (Salmonella) (enzyme)

From PMC9609667, “Serendipitous Discovery of a Competitive Inhibitor of FraB, a Salmonella Deglycase and Drug Target” (Pathogens, 2022)
